Legend:
[1] = Particle size and polydispersity index of nanoparticle compositions (Zetasizer Nano ZS); format: physicochemical; details: for particle size, rank within the named table (in words): comparison amongst compositions
Method: A Zetasizer Nano ZS (Malvern Instruments Ltd, Malvern, Worcestershire, UK) can be used to determine the particle size, the polydispersity index (PDI) and the zeta potential of the nanoparticle compositions in 1×PBS in determining particle size and 15 mM PBS in determining zeta potential.

[2] = Encapsulation efficiency of RNA (QUANT-IT RIBOGREEN RNA assay); format: physicochemical
Method: For nanoparticle compositions including an RNA, a QUANT-IT™ RIBOGREEN® RNA assay (Invitrogen Corporation Carlsbad, Calif.) can be used to evaluate the encapsulation of an RNA by the nanoparticle composition. The samples are diluted to a concentration of approximately 5 μg/mL in a TE buffer solution (10 mM Tris-HCl, 1 mM EDTA, pH 7.5). 50 μL of the diluted samples are transferred to a polystyrene 96 well plate and either 50 μL of TE buffer or 50 μL of a 2% Triton X-100 solution is added to the wells. The plate is incubated at a temperature of 37° C. for 15 minutes. The RIBOGREEN® reagent is diluted 1:100 in TE buffer, and 100 μL of this solution is added to each well. The fluorescence intensity can be measured using a fluorescence plate reader (Wallac Victor 1420 Multilablel Counter; Perkin Elmer, Waltham, Mass.) at an excitation wavelength of, for example, about 480 nm and an emission wavelength of, for example, about 520 nm. The fluorescence values of the reagent blank are subtracted from that of each of the samples and the percentage of free RNA is determined by dividing the fluorescence intensity of the intact sample (without addition of Triton X-100) by the fluorescence value of the disrupted sample (caused by the addition of Triton X-100).

[3] = pKa of nanoparticle compositions; format: physicochemical
[4] = system: luciferase (Luc) mRNA expression; test: Expression of Luc induced by sample formulations, whole-body bioluminescence after intravenous administration; format: in vivo; details: mice, i.v., 0.5 mg/kg
Method: In order to monitor how effectively various nanoparticle compositions deliver therapeutic and/or prophylactic agents to targeted cells, different nanoparticle compositions including a particular therapeutic and/or prophylactic agent (for example, a modified or naturally occurring RNA such as an mRNA) are prepared and administered to rodent populations. Mice are intravenously, intramuscularly, intraarterially, or intratumorally administered a single dose including a nanoparticle composition with a formulation such as those provided in Table 1. In some instances, mice may be made to inhale doses. Dose sizes may range from 0.001 mg/kg to 10 mg/kg, where 10 mg/kg describes a dose including 10 mg of a therapeutic and/or prophylactic agent in a nanoparticle composition for each 1 kg of body mass of the mouse. A control composition including PBS may also be employed.
Upon administration of nanoparticle compositions to mice, dose delivery profiles, dose responses, and toxicity of particular formulations and doses thereof can be measured by enzyme-linked immunosorbent assays (ELISA), bioluminescent imaging, or other methods. For nanoparticle compositions including mRNA, time courses of protein expression can also be evaluated. Samples collected from the rodents for evaluation may include blood, sera, and tissue (for example, muscle tissue from the site of an intramuscular injection and internal tissue); sample collection may involve sacrifice of the animals.
The efficacy of the nanoparticle compositions presented in Tables 1, 1a, 17-1, 19-1, 20-1 and 21-1 was evaluated with a bioluminescence study. Formulations were administered intravenously to mice (n=6) at a dosage of 0.5 mg/kg (mpk) and bioluminescence measured at 3, 6, and 24 hour time points. The standard MC3 formulation and a PBS control were evaluated for comparison.

[5] = system: modified luciferase expression; test: Expression of Luc in different organs (liver, lung, spleen, femur) 6 hours after intravenous administration; format: in vivo; details: i.v., 0.5 mpk
Method: The efficacy of the nanoparticle compositions presented in Tables 1, 1a, 17-1, 19-1, 20-1 and 21-1 was further evaluated by measuring the expression of modified luciferase in the liver, lung, spleen, and femur upon administration of a given composition. Formulations were administered intravenously to mice (n=3) at a dosage of 0.5 mpk and bioluminescence measured after 6 hours. The standard MC3 formulation and a PBS control were also tested.

IL-6 = test: Cytokine production induced by sample formulations: IL-6; format: in vivo; details: mice, i.v., 0.5 mpk, 6 hours; for IL-6: in pg/mL (unit assumed)
Excerpt: (§1) The introduction of foreign material into a mammalian body induces an innate immune response that promotes cytokine production. Such immune responses to, for example, nanoparticle compositions including therapeutic and/or prophylactic agents, are undesirable. The induction of certain cytokines is thus measured to evaluate the […] of nanoparticle compositions. The concentrations of various cytokines in mice upon intravenous administration of nanoparticle compositions presented in Tables 1, 1a, 17-1, 19-1, 20-1 and 21-1 at a dosage of 0.5 mpk was measured at 6 hours. The standard MC3 formulation and a PBS control were also tested.

IP-10 = test: Cytokine production induced by sample formulations: IP-10; format: in vivo; details: mice, i.v., 0.5 mpk, 6 hours, in pg/mL (unit assumed)
Excerpt: as §1

[6] = Table 20-1, rows without footnote mark
[7] = Table 1, rows without footnote mark
[8] = Table 1, rows without footnote mark (lipid:DOPE:cholesterol:PEG-DMG 40:20:38.5:1.5, Luc mRNA; MC3 standard formulation)
[9] = Table 1, * lipid:DSPC:Chol:PEG-DMG 50:10:38.5:1.5

SMILES	PDI [1, 6]	Size (nm) [1, 6] [nm]	EE (%) [2, 6] [%]	pKa [3, 6]	Total Flux 3 hours ([4]; Table 20-2)	Total Flux 6 hours ([4]; Table 20-2)	Total Flux 24 hours ([4]; Table 20-2)	Total Flux Femur ([5]; Table 20-3, mice)	Total Flux Liver ([5]; Table 20-3, mice)	Total Flux Lung ([5]; Table 20-3, mice)	Total Flux Spleen ([5]; Table 20-3, mice)	IL-6 (IL-6; Table 20-4, formula (20-I))	IP-10 (IP-10; Table 20-4, formula (20-I))	Total Flux 3 hours ([4]; Table 2)	Total Flux 6 hours ([4]; Table 2)	Total Flux Liver ([5]; Table 3, mice)	Total Flux Lung ([5]; Table 3, mice)	Total Flux Spleen ([5]; Table 3, mice)	IP-10 (IP-10; Table 4)	further results
CCCCCCCCCCCCCCN(CCO)CCN(CCCCCCCCCCCCCC)CCCCCCCCCCCCCC [Compound 20-12, 2-((2-(Ditetradecylamino)ethyl)(tetradecyl)amino)ethan-1-ol]	0.217	147.1	82.3	6.58	1.57E+09	1.84E+09	1.24E+08	1.37E+06	3.08E+08	3.58E+06	6.15E+07	445.7	3864.5	–	–	–	–	–	–	particle size, rank within the named table (in words) [1]: largest particles
CCCCC/C=C\C/C=C\CCCCCCCCN(CCCCCCCC/C=C\C/C=C\CCCCC)CCN1CCN(CCN(CCCCCCCCCCCC)CCN(CCCCCCCCCCCC)CCCCCCCCCCCC)CC1 [Compound 29, N^1-(2-(4-(2-(Di((9Z,12Z)-octadeca-9,12-dien-1-yl)amino)ethyl)piperazin-1-yl)ethyl)-N^1,N^2,N^2-tridodecylethane-1,2-diamine]	–	–	–	–	–	–	–	–	–	–	–	–	–	1.22E+08	2.51E+08	2.27E+07	4.70E+05	2.97E+06	3454	PDI [1, 7]: 0.060; Size (nm) [1, 8]: 105.3 nm; EE (%) [2, 7]: 48.8%; pKa [3, 7]: 5.97; Total Flux 24 hours ([4]; Table 2): 2.69E+07; IL-6 (IL-6; Table 4): 108
CCCCCCCCCCCCN(CCCCCCCCCCCC)CCN(CCO)CCCCCCCC(=O)OC(CCCCCCCC)CCCCCCCC [Compound 20-9, Heptadecan-9-yl 8-((2-(didodecylamino)ethyl)(2-hydroxyethyl)amino)octanoate]	0.130	64.5	95.9	6.22	3.65E+08	6.91E+08	4.81E+07	2.89E+05	1.57E+08	1.30E+06	5.11E+06	152.1	271.1	–	–	–	–	–	–	particle size, rank within the named table (in words) [1]: smallest particles
CCCCC/C=C\C/C=C\CCCCCCCCN(CCO)CCN(CCCCCCCCCCCC)CCCCCCCCCCCC [Compound 20-25, 2-((2-(Didodecylamino)ethyl)((9Z,12Z)-octadeca-9,12-dien-1-yl)amino)ethan-1-ol]	0.171	71.7	98.4	6.23	1.16E+09	1.78E+09	3.82E+07	3.13E+05	1.88E+08	7.85E+05	4.16E+06	20.6	188.0	–	–	–	–	–	–	–
CCCCCCCCCCCCN(CCCCCCCCCCCC)CCN1CCN(C(=O)CN(CCCCCCCCCCCC)CCN(CCCCCCCCCCCC)CCCCCCCCCCCC)CC1 [Compound 2, 2-((2-(Didodecylamino)ethyl)(dodecyl)amino)-1-(4-(2-(didodecylamino)ethyl)piperazin-1-yl)ethan-1-one]	–	–	–	–	–	–	–	–	–	–	–	–	–	6.01E+09	3.23E+09	3.33E+08	4.76E+05	1.14E+07	3365	Size (nm) ([1]; Table 1, * formulated with lipid:DSPC:Chol:PEG-DMG 50:10:38.5:1.5): 94.7 nm; PDI [1, 9]: 0.108; EE (%) [2, 9]: 96%; pKa [3, 9]: 6.39; Total Flux 24 hours ([4]; Table 2): 3.23E+09
CCCCCCCCCCCCN(CCCCCCCCCCCC)CCN(CCCCCCCCCCCC)CCN1CCN(C(=O)CN(CCCCCCCCCCCC)CCCCCCCCCCCC)CC1 [Compound 3, 2-(Didodecylamino)-1-(4-(2-((2-(didodecylamino)ethyl)(dodecyl)amino)ethyl)piperazin-1-yl)ethan-1-one]	–	–	–	–	–	–	–	–	–	–	–	–	–	3.75E+08	1.12E+09	1.36E+08	8.47E+05	9.51E+05	341	PDI [1, 7]: 0.044; Size (nm) [1, 8]: 73.5 nm; EE (%) [2, 7]: 92.5%; IL-6 (IL-6; Table 4): 7; IL-6 induction, rank within the named table (in words) (IL-6): lowest IL-6 expression
CCCCCCCCCCCCN(CCCCCCCCCCCC)CCNCCO [Compound 20-19, 2-((2-(Didodecylamino)ethyl)amino)ethan-1-ol]	0.145	74.9	99.5	4.73	5.37E+05	7.60E+05	6.08E+05	–	3.80E+05	1.96E+04	2.74E+04	–	127.2	–	–	–	–	–	–	encapsulation efficiency, rank within the named table (in words) ([2]; comparison amongst compositions): highest

Reference: US10195156B2, “Compounds and compositions for intracellular delivery of agents” (ModernaTX, Inc., priority 2015, dated 2019)
